Read-outs that look alike come from different tables or passages of the source.
What was measured:
Assay in all cases: Kinase panel profiling at 1 µmol/L (MSA or IMAP), percentage inhibition
Assay type in all cases: biochemical
[1] = molecular target: panel of 255 wild-type kinases (Homo sapiens, UniProt P57059); settings: read-out: %-inhibition at 1 µmol/L, SIK
[2] = molecular target: panel of 255 wild-type kinases (Homo sapiens, UniProt P21802); settings: read-out: %-inhibition at 1 µmol/L, FGFR2
[3] = molecular target: T1, panel of 255 wild-type kinases (Homo sapiens, UniProt Q16566); settings: read-out: %-inhibition CaMK4
T1 sequence (Q16566 1-473): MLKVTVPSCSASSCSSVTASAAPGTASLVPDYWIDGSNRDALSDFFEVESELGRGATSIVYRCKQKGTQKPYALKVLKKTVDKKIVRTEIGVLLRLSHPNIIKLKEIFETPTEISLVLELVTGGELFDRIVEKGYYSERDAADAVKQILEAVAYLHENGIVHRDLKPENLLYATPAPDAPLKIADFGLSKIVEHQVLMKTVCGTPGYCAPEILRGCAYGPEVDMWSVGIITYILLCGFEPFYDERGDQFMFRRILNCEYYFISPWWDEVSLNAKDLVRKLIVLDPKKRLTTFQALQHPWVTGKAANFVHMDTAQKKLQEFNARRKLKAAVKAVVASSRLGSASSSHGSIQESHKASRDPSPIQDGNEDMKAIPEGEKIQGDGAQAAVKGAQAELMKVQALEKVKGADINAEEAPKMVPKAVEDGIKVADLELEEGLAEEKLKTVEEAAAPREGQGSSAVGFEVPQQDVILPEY

[4] = molecular target: panel of 255 wild-type kinases (Homo sapiens, UniProt P07333); settings: read-out: %-inhibition at 1 µmol/L, FMS
[5] = molecular target: panel of 255 wild-type kinases (Homo sapiens, UniProt P78362); settings: read-out: %-inhibition at 1 µmol/L, SRPK2
[6] = molecular target: panel of 255 wild-type kinases (Homo sapiens, UniProt P49674); settings: read-out: %-inhibition at 1 µmol/L, CK1ε
[7] = molecular target: T2, panel of 255 wild-type kinases (Homo sapiens, UniProt O94806); settings: read-out: %-inhibition at 1 µmol/L, PKD3
T2 sequence (O94806 1-890): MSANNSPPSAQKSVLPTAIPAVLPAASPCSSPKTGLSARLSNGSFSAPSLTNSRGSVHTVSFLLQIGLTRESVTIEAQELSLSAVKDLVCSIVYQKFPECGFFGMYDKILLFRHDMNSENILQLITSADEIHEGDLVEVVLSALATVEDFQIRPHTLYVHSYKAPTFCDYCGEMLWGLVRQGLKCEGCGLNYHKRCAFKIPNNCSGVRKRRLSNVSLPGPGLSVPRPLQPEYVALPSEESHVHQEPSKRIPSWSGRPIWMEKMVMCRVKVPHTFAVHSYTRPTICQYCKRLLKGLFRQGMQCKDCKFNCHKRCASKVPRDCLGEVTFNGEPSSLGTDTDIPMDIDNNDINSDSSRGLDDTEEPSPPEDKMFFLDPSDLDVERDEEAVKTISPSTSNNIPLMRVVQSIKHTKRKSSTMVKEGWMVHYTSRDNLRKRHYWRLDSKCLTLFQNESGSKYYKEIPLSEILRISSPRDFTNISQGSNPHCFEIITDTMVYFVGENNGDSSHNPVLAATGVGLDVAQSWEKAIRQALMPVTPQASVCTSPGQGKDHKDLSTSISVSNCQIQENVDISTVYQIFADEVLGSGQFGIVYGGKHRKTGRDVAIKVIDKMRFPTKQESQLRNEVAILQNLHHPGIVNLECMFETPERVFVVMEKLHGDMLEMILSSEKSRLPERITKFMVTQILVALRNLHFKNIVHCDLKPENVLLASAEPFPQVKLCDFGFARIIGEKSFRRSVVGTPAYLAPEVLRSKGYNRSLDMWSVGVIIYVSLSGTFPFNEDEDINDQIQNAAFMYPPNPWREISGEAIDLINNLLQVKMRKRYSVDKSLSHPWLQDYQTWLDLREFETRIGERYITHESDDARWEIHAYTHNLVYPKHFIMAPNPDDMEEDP

[8] = molecular target: T3, panel of 255 wild-type kinases (Homo sapiens, UniProt Q08881); settings: read-out: %-inhibition at 1 µmol/L, ITK
T3 sequence (Q08881 1-620): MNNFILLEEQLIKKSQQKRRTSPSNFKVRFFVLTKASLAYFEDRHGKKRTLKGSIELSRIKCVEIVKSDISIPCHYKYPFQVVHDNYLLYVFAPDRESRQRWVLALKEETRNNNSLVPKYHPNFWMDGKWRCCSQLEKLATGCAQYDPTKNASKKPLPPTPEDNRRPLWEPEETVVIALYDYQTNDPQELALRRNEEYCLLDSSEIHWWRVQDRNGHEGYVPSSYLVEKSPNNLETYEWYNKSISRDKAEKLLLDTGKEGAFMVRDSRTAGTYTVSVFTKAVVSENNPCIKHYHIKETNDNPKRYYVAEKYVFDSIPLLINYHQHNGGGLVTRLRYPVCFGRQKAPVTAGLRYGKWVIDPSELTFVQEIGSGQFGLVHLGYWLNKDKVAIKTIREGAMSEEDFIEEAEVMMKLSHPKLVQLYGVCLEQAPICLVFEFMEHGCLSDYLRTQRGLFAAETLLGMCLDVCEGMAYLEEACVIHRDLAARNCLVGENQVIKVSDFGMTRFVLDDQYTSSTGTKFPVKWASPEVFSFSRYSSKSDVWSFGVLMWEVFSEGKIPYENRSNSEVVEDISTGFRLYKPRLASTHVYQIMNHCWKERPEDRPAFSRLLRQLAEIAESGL

[9] = molecular target: panel of 255 wild-type kinases (Homo sapiens, UniProt P00519); settings: read-out: %-inhibition ABL
[10] = kinase SIK, 1 µmol/L single concentration
[11] = kinase FGFR2, 1 µmol/L single concentration
[12] = CaMK4 kinase assay, 1 µmol/L single concentration
[13] = kinase FMS, 1 µmol/L single concentration
[14] = kinase SRPK2, 1 µmol/L single concentration
[15] = kinase CK1ε, 1 µmol/L single concentration
[16] = kinase PKD3, 1 µmol/L single concentration
[17] = kinase ITK, 1 µmol/L single concentration
[18] = ABL kinase assay, 1 µmol/L single concentration

Structure (SMILES)	inhibition at 1 µM [1, 10]	inhibition at 1 µM [2, 11]	inhibition at 1 µM [3, 12]	inhibition at 1 µM [4, 13]	inhibition at 1 µM [5, 14]	inhibition at 1 µM [6, 15]	inhibition at 1 µM [7, 16]	inhibition at 1 µM [8, 17]	inhibition at 1 µM [9, 18]	inhibition at 1 µM [1]	inhibition at 1 µM [2]	inhibition at 1 µM [3]	inhibition at 1 µM [4]	inhibition at 1 µM [5]	inhibition at 1 µM [6]	inhibition at 1 µM [7]	inhibition at 1 µM [8]	inhibition at 1 µM [9]
Cc1nc(NC(=O)N2CCC[C@H]2C(N)=O)sc1-c1ccnc(C(C)(C)C(F)(F)F)c1 [alpelisib]	-10%	7%	-7%	14%	-1.61%	-2.48%	-2.46%	9%	16%									
Cn1cc(-c2cc3c(N4CCN(c5ncc([C@@](C)(N)c6ccc(F)cc6)cn5)CC4)ncnn3c2)cn1 [avapritinib]	37%	62%	-0.588%		-0.951%	2.14%	8%	19%	57%									
Cn1cnc2c(F)c(Nc3ccc(Br)cc3F)c(C(=O)NOCCO)cc21 [binimetinib]	0.277%	4.56%	2.67%	7%	-1.4%	-3.48%	0.731%	1.61%	-1.53%									
CNC(=O)c1ccc(-c2cnc3ncc(Cc4ccc5ncccc5c4)n3n2)cc1F [capmatinib]										-6.33%	7%	-2.8%	13%	-9%	-6%	-3.34%	5%	-1.84%
COc1cc2ncnc(Nc3ccc(F)c(Cl)c3)c2cc1NC(=O)/C=C/CN1CCCCC1 [dacomitinib]	40%	16%	2.44%	8.55%	0.863%	6.55%	8%	24%										
C[C@H](Nc1ncnc2nc[nH]c12)c1cc2cccc(Cl)c2c(=O)n1-c1ccccc1 [duvelisib]	-1.9%	5%	-3%	2.22%	-0.863%	5%	-3.52%	9%	-2%									
COC(=O)N[C@@H](C)CNc1nccc(-c2cn(C(C)C)nc2-c2cc(Cl)cc(NS(C)(=O)=O)c2F)n1 [encorafenib]	2.23%	4%	4.35%	8%	2%	15%	5%	3.49%	-5.41%									
CN1CCN(c2ccc(C(=O)Nc3n[nH]c4ccc(Cc5cc(F)cc(F)c5)cc34)c(NC3CCOCC3)c2)CC1 [entrectinib]	7.49%	97%	1.07%	86%	21%	10%	3%	99%	77%									
CCc1nc(C(N)=O)c(Nc2ccc(N3CCC(N4CCN(C)CC4)CC3)c(OC)c2)nc1NC1CCOCC1 [gilteritinib]	59%	61%	18%	104%	12%	5.55%	53%	92%	40%									
CCN1CCN(c2ccc(Nc3cc(N(C)C(=O)Nc4c(Cl)c(OC)cc(OC)c4Cl)ncn3)cc2)CC1 [infigratinib]	30%		2.47%	96%	-5.51%	-6.49%	11%	6%	10%									
O=C(Nc1cnn2ccc(N3CCC[C@@H]3c3cc(F)ccc3F)nc12)N1CC[C@H](O)C1 [larotrectinib]	-1.7%	-6.46%	0.861%	-4.31%	-3%	-2.19%	8%	13%	-7%									
C[C@H]1Oc2cc(cnc2N)-c2c(nn(C)c2C#N)CN(C)C(=O)c2ccc(F)cc21 [lorlatinib]	-1.87%	5.32%	1.56%	32%	4%	0.583%	1.46%	14%	-2.34%									
CCN1C(=O)N(c2c(F)c(OC)cc(OC)c2F)Cc2cnc3[nH]c(CN4CCOCC4)cc3c21 [pemigatinib]	22%		1.2%	93%	-6%	1.32%	14%	2%	10%									
FC(F)(F)c1ccc(CNc2ccc(Cc3c[nH]c4ncc(Cl)cc34)cn2)cn1 [pexidartinib]	9%	62%	4%	95%	-1.19%	5.38%	-12%	9%	0.064%									

Reference: article PMC9516332 (Frontiers in Oncology, 2022)
